Measurements: the supplement of paper PMC8988213
Where a name gives a salt, the structure may show the parent alone.

How the values were obtained:
[1] = test system: ID211 patient-derived PDAC 2D line (post-FOLFIRINOX); assay: normalised area under dose-response curve (viability relative to DMSO, 7 doses up to 10 µM) (fraction (AUC)); higher = less sensitive (more viability retained); settings: 72 h; top dose: 10 µM
Procedure, shortened: (§1)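 Patient-derived 2D PDAC cells grown out from organoids were seeded robotically at 1,500–3,000 cells/well in 96-well plates and incubated overnight at 37°C, 5% CO2. SelleckChem library compounds were added at seven concentrations (3-fold dilution series, highest 10 µM) for 72 h. CellTiter-Glo luminescence was read after 10 min. Viability was normalised to the DMSO control, and area under the dose-response curve was derived with the GRmetrics R package.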

[2] = test system: ID188 patient-derived PDAC 2D line (pre-FOLFIRINOX); assay: as above; settings: 72 h; top dose: 10 µM
Procedure, shortened: as §1

Row | SMILES | normalised area under dose-response curve [1] | normalised area under dose-response curve [2]
1 | CC(C)(C)C(=O)N1N=CC[C@H]1c1ccccc1 [GSK963] | 0.857 | 0.939
2 | CC[C@@H]1C(=O)N(C)c2cnc(Nc3ccc(C(=O)N[C@H]4CC[C@H](N5CCN(CC6CC6)CC5)CC4)cc3OC)nc2N1C(C)C [Volasertib (BI 6727)] | 0.707 | 0.701
3 | Cc1cc(C)nc(NC(=S)N2CCN(Cc3ccc(C(F)(F)F)cc3)CC2)c1 [NCT-503] | 0.909 | 0.954
4 | CCCCc1nc2cc(/C=C/C(=O)NO)ccc2n1CCN(CC)CC [Pracinostat (SB939)] | 0.799 | 0.778
5 | NS(=O)(=O)c1ccc(NC(=O)Nc2ccc(F)cc2)cc1 [U-104] | 0.976 | 0.94
6 | COc1cc2ncnc(Oc3cccc(NC(=O)Nc4cc(C(C)(C)C(F)(F)F)on4)c3)c2cc1OC | 0.832 | 0.948
7 | CCOC(=O)Nc1cc(-c2ccc(C)c(NS(C)(=O)=O)c2)nn2c(C)nnc12 [Bromosporine] | 0.801 | 0.878
8 | Cc1cc(C)nc(NS(=O)(=O)c2ccc(NC(=S)NC(=O)COc3ccc(Br)cc3Cl)cc2)n1 [ZCL278] | 0.777 | 0.928
9 | CC(C)(CO)c1cc2cc(NC(=O)C3(c4ccc5c(c4)OC(F)(F)O5)CC3)c(F)cc2n1C[C@@H](O)CO [Tezacaftor(VX-661)] | 1.02 | 0.925
10 | COC(=O)c1ccc2c(c1)NC(=O)/C2=C(\Nc1ccc(N(C)C(=O)CN2CCN(C)CC2)cc1)c1ccccc1 [Nintedanib (BIBF 1120)] | 0.86 | 0.915
11 | CC(C)(C#N)c1ccc(N2C(=O)OCc3cnc4ccc(-c5cnc6ccccc6c5)cc4c32)cc1 | 0.804 | 0.825
12 | CC(=O)c1c(C)c2cnc(Nc3ccc(N4CCNCC4)cn3)nc2n(C2CCCC2)c1=O | 0.865 | 0.882
13 | Cc1[nH]c2ccccc2c1CCNCc1ccc(/C=C/C(=O)NO)cc1 [Panobinostat (LBH589)] | 0.306 | 0.421
14 | CCC[C@H](NC(=O)/C(C#N)=C/c1cccc(Br)n1)c1ccccc1 [Degrasyn (WP1130)] | 0.82 | 0.869
15 | Cc1ccc(C(=O)N(CCCN)[C@@H](c2nc3cc(Cl)ccc3c(=O)n2Cc2ccccc2)C(C)C)cc1 | 0.697 | 0.5
16 | O=C(Nc1ccccc1-c1cn2c(CN3CCNCC3)csc2n1)c1cnc2ccccc2n1 [SRT1720 HCl] | 0.812 | 0.865
17 | O=C(O)CCN1C(=O)/C(=C/c2ccc(-c3ccc([N+](=O)[O-])cc3)o2)SC1=S [KYA1797K] | 0.835 | 0.976
18 | Cc1ccc2nc(NCCN)c3ncc(C)n3c2c1 | 0.857 | 0.853
19 | Cc1cc(Cl)ccc1OCCCC(=O)NO [Droxinostat] | 0.936 | 0.946
20 | O=c1cc(-c2ccc(O)c(O)c2)oc2cc(O)cc(O)c12 [Luteolin] | 0.754 | 0.82
21 | O=C(NCc1cccc(O)c1)Nc1nc(-c2ccncc2)cs1 [RKI-1447] | 0.962 | 1.04
22 | NC(=O)Nc1cc(-c2cccc(F)c2)sc1C(=O)N[C@H]1CCCNC1 [AZD7762] | 0.507 | 0.558
23 | Cc1nnc(C(C)C)n1C1C[C@H]2CC[C@@H](C1)N2CC[C@H](NC(=O)C1CCC(F)(F)CC1)c1ccccc1 (stereo in doubt) [Maraviroc] | 0.865 | 1
24 | CC1(N)CCN(c2cnc(-c3cccc(Cl)c3Cl)c(N)n2)CC1 [SHP099 dihydrochloride] | 0.91 | 0.963
25 | CCCCCCCCCCCCCC(=S)NCCCC[C@H](NC(=O)OCc1ccccc1)C(=O)Nc1ccccc1 [Thiomyristoyl] | 0.787 | 0.925
26 | Cc1cc(F)c(C(=O)Nc2cccc(-c3nncn3C(C)C)n2)cc1-n1cnc(C2CC2)c1 [Selonsertib (GS-4997)] | 0.911 | 0.951
27 | O=c1[nH]cc(F)c(=O)[nH]1 [Fluorouracil (5-Fluoracil, 5-FU)] | 0.804 | 0.854

Row | SMILES | normalised area under dose-response curve [1] | normalised area under dose-response curve [2]
28 | CN1CCN(c2nc(C3=C(c4c[nH]c5ccccc45)C(=O)NC3=O)c3ccccc3n2)CC1 [Sotrastaurin] | 0.941 | 0.978
29 | O=C1C(=Cc2cccnc2)C(=O)c2ccccc21 [PRT4165] | 0.746 | 0.875
30 | CC(C)(C)S(=O)(=O)c1ccc2nccc(Nc3n[nH]c4ccc(F)cc34)c2c1 [GSK583] | 0.893 | 0.9
31 | O=C(O)c1ccc(N2C(=O)/C(=C\c3ccc(-c4ccc([N+](=O)[O-])cc4)o3)C=C2c2ccccc2)cc1 [4E1RCat] | 0.895 | 0.946
32 | C[C@@H]1COCCN1c1cc(C2([S@](C)(=N)=O)CC2)nc(-c2cc[nH]c3nccc2-3)n1 [AZD6738] | 0.749 | 0.805
33 | C[C@@H](NC(=O)c1ncnc(N)c1Cl)c1ncc(C(=O)Nc2cc(C(F)(F)F)c(Cl)cn2)s1 [MLN2480] | 0.818 | 0.905
34 | CCOc1ccccc1-n1c(C(C)N2CCN(C(=O)COc3ccc(Cl)cc3)CC2)nc2ccccc2c1=O (stereo not drawn) [Erastin] | 0.813 | 0.856
35 | Clc1ccc(Nc2nnc(Cc3ccncc3)c3ccccc23)cc1 [Vatalanib (PTK787) 2HCl] | 0.894 | 0.926
36 | C/C(=N\NC(=S)N1CCC1)c1ccccn1 | 0.138 | 0.366
37 | Cc1cc(Nc2cc(N)ncn2)c(=O)n2c1C(=O)NC21CCCCC1 [eFT-508 (eFT508)] | 1.01 | 0.977
38 | Cn1cc(-c2ccc3c(c2)CCN3C(=O)Cc2cccc(C(F)(F)F)c2)c2c(N)ncnc21 | 0.852 | 0.915
39 | CN1CCN(c2ccc3nc(-c4c(N)c5c(F)cccc5[nH]c4=O)[nH]c3c2)CC1 [Dovitinib (TKI258) Lactate] | 0.904 | 1.01
40 | CC(=O)c1cc([N+](=O)[O-])c(Sc2ccc(F)cc2F)s1 | 0.966 | 0.93
41 | Cn1cnc2c(F)c(Nc3ccc(Br)cc3F)c(C(=O)NOCCO)cc21 | 0.457 | 0.732
42 | CN1CCN(CCOc2cc(OC3CCOCC3)c3c(Nc4c(Cl)ccc5c4OCO5)ncnc3c2)CC1 [Saracatinib (AZD0530)] | 0.609 | 0.858
43 | CCOc1cc2ncc(C#N)c(Nc3ccc(OCc4ccccn4)c(Cl)c3)c2cc1NC(=O)/C=C/CN(C)C [Neratinib (HKI-272)] | 0.638 | 0.893
44 | COc1cc(CCc2cc(NC(=O)c3ccc(N4CC(C)NC(C)C4)cc3)n[nH]2)cc(OC)c1 (stereo not drawn) [AZD4547] | 0.829 | 0.998
45 | NS(=O)(=O)OC[C@@H]1C[C@@H](n2ccc3c(N[C@H]4CCc5ccccc54)ncnc32)C[C@@H]1O [Pevonedistat (MLN4924)] | 0.589 | 0.825
46 | CNc1cc(-c2cccc(Cl)c2Cl)nc(N)n1 [TH287] | 0.901 | 0.896
47 | Cn1cnc2c(F)c(Nc3ccc(Br)cc3Cl)c(C(=O)NOCCO)cc21 [Selumetinib (AZD6244)] | 0.492 | 0.676
48 | NC(=O)[C@@H](CCC(F)(F)F)N(Cc1ccc(-c2ncon2)cc1F)S(=O)(=O)c1ccc(Cl)cc1 | 0.77 | 0.882
49 | Nc1ncnc2n[nH]c(Nc3ccc(F)cc3)c12 | 0.864 | 0.947
50 | O=c1cc(N2CCOCC2)oc2c1ccc1ccccc12 [NU7026] | 0.846 | 0.998
51 | Cc1cccc(CC(=O)N2CCc3c2ccc(-c2cn(C)c4ncnc(N)c24)c3F)n1 | 0.959 | 0.87
52 | CN1C(=O)[C@@]23C[C@]4([C@]56C[C@@]78SS[C@@](CO)(C(=O)N7[C@H]5Nc5ccccc56)N(C)C8=O)c5ccccc5N[C@@H]4N2C(=O)[C@]1(CO)SS3 [Chaetocin] | 0.0212 | 0.192
53 | O=c1[nH]nc(Sc2ncc([N+](=O)[O-])s2)n1-c1ccc2c(c1)OCCO2 [BI-78D3] | 0.811 | 0.965
54 | O=C1NCCCc2c1oc1ccc(O)cc21 | 0.878 | 0.904
